Measured values published in patent US4612311A, “1,2,4-benzothiadiazine oxide derivatives” (Warner-Lambert Company, priority 1984, dated 1986).

Experiments:
[1] = Motility test (spontaneous motility); assay type: in vivo, male mice (NMRI); conditions: 30 min
Experimental: (§1) Experimental animals used were male mice (NMRI, origin: Ivanovas, Kissleg) of weight 18 to 25 g. The animals were allowed food and water ad lib.. but, according to the test, they were fasted for two to 16 hours before the beginning of the test with water allowed ad lib.
(§2) The substances under test were applied orally by means of a stomach tube in a 0.8% methocel suspension 30 minutes before the start of the test.
The spontaneous motility was measured simultaneously for a test group of five animals each for 30 minutes in two opaque cages (length 50 cm, width 25 cm, height 30 cm) using three infrared light barriers in each case. The sum of the impulses registered for the control group during this period was taken as 100% and the deviation in the case of the test group from this value was calculated in percent.

[2] = Punished exploratory behavior (4 plate test), anxiolytic activity; assay type: in vivo, male mice (NMRI); conditions: for Anxiolytic Activity (punished exploration), increase: 30 min before test, control = 100%
Experimental: as §1, §2
(§3) The model for testing for anxiolytic activity is based on the experimental creation of a conflict in the animals by counteracting the natural exploratory tendencies of the animals with an anxiety-inducing stimulus (aversive foot shock, aversive illumination).
The test box has a metal base consisting of four rectangles of equal size. After placing the animal in the box it can freely explore for 15 seconds. Then every transition from one metal plate of the base to another is punished by a mild foot shock (1.5 mA for 0.5 seconds). The number of tolerated foot shocks within one minute is the measure of the anxiolytic activity of the substance. The average number of accepted foot shock by the control animals was taken as 100%. Ten animals were examined per dose.

[3] = Ataxia threshold; assay type: in vivo, male mice (NMRI); conditions: oral, ">": no effect up to this highest examined dosage
Experimental: as §1, §2

[4] = Effect on duration of hexobarbital anesthesia (hypnotic activity); assay type: in vivo, male mice (NMRI); conditions: hexobarbital sodium 70 mg/kg i.v.
Experimental: as §1, §2
Seventy mg/kg (10 ml/kg body weight) of hexobarbital sodium were injected into a tail vein within a period of 15 seconds. Ten animals were used per dose. The criterion for the end of anesthesia was the moment when the animal roused itself from lying on its side. The average duration of anesthesia in the control animals was taken as 100 and the increases measured were calculated as a percentage of this value.

[5] = target: benzodiazepine rec.; assay: Receptor binding: benzodiazepine rec.
[6] = LD50; design: species or system male mice (NMRI); conditions: mouse, in vivo; oral; ">": no effect up to this highest examined dosage
Experimental: as §1, §2

[7] = tested on: benzodiazepine rec.; assay: GABA-Ratio, benzodiazepine receptor binding; conditions: in words
[8] = Unpunished exploratory behavior (light-dark preference), anxiolytic activity; assay type: in vivo, male mice (NMRI); conditions: 30 min before test, control = 100%
Experimental: as §1, §2, §3
The testing equipment consists of a larger, brightly illuminated compartment and a smaller dark compartment. The animal is placed in the dark compartment and observed for ten minutes. The number of transitions between the compartments and the time spent in the two compartments are measured. The average number of transitions between the compartments of the control animals is taken as 100%. Ten animals were tested per dose.

Structure (SMILES) | Anxiolytic Activity (punished exploration), increase ([2]; 15 mg/kg oral) | Ataxia Threshold [3] | Kd [5] | LD50 [6] | Hypnotic Activity (increase in sleep time) ([4]; 25 mg/kg oral) | GABA-Ratio, agonist character [7] | further results
Cc1nc2n(n1)-c1ccc(Cl)cc1S(=O)(c1cccc(Cl)c1)=N2 (racemic) [Example 1c, (±)-7-Chloro-5-(3-chlorophenyl)-2-methyl-[1,2,4]triazolo[5,1-c][1,2,4]benzothiadiazine-5-oxide] | 35% | > 100 mg/kg | 10000 nM | > 400 mg/kg | – | – | Spontaneous Motility, increase ([1]; 15 mg/kg oral, control = 100%): 12%; Hypnotic Activity (increase in sleep time) ([4]; 15 mg/kg oral): 6%
Cc1nc2n(n1)-c1ccc(Cl)cc1S(=O)(c1ccccc1)=N2 (racemic) [Example 1a, (±)-7-Chloro-2-methyl-5-phenyl-[1,2,4]triazolo[5,1-c][1,2,4]benzothiadizine-5-oxide] | – | > 100 mg/kg | 1500 nM | 1600 mg/kg | 123% | part. agonist | Anxiolytic activity (in words) ([2]; 7.5 to 45 mg/kg, compared with diazepam 1 to 4 mg/kg): comparable with that of diazapam (1 to 4 mg/kg); Hypnotic Activity (increase in sleep time) ([4]; 50 mg/kg oral): 175%
O=S1(c2ccccc2)=Nc2ncnn2-c2ccc(Cl)cc21 (racemic) [Example 4a, (±)-7-Chloro-5-phenyl-[1,2,4]triazolo[5,1-c][1,2,4]benzothiadiazine-5-oxide] | 45% | > 100 mg/kg | 3500 nM | > 400 mg/kg | – | part. ago. | Spontaneous Motility (effect in words) ([1]; 100 mg/kg oral): no effect; Hypnotic Activity (increase in sleep time) ([4]; 100 mg/kg oral): 224%
O=S1(c2ccccc2)=Nc2ncnn2-c2cc(Cl)c(Br)cc21 (racemic) [Example 4b, (±)-7-Bromo-8-chloro-5-phenyl-[1,2,4]triazolo[5,1-c][1,2,4]benzothiadiazine-5-oxide] | – | > 400 mg/kg | 100000 nM | > 400 mg/kg | 21% | – | Spontaneous Motility, increase ([1]; 12.5 mg/kg oral, control = 100%): 83%; Anxiolytic Activity (punished exploration), increase ([2]; 12.5 mg/kg oral): 34%
Cc1nc2n(n1)-c1ccc(Cl)cc1S(=O)(c1ccccc1Cl)=N2 (racemic) [Example 2c, (±)-7-Chloro-2-methyl-5-(2-chlorophenyl)[1,2,4]triazolo[5,1-c][1,2,4]benzothiadiazine-5-oxide] | – | > 100 mg/kg | 20 nM | > 400 mg/kg | – | part. ago. | Spontaneous Motility, increase ([1]; 30 mg/kg oral, control = 100%): 6%; Anxiolytic Activity (punished exploration), increase ([2]; 30 mg/kg oral): 66%; Hypnotic Activity (increase in sleep time) ([4]; 30 mg/kg oral): 96%
CN1C(=O)CN=C(c2ccccc2)c2cc(Cl)ccc21 [Diazepam, reference compound] | – | 5 mg/kg | 64 nM | – | – | – | Anxiolytic Activity (unpunished exploration), increase ([8]; 2 mg/kg oral): 43%; Anxiolytic Activity (unpunished exploration), decrease ([8]; 5 mg/kg oral): 33%; Spontaneous Motility, decrease ([1]; 5 mg/kg oral, control = 100%): 67%; Ataxia Threshold ([3]; listed as diazepam): approximately 5 mg/kg; Hypnotic Activity (increase in sleep time) ([4]; 2 mg/kg oral): 286%; Hypnotic Activity (increase in sleep time) ([4]; 4 mg/kg oral): 320%
